# Data: paper PMC9506414, “Novel 2,6,9-Trisubstituted Purines as Potent CDK Inhibitors Alleviating Trastuzumab-Resistance of HER2-Positive Breast Cancers” (Pharmaceuticals, 2022)
# How the values were obtained:
# Experiment in all cases: Kinome-wide inhibition profiling
# Assay type in all cases: biochemical
# [1] = biological target: T1, ACVRL1 (Homo sapiens, UniProt P37023)
# T1 construct: purchased Reaction Biology Corp
# Procedure: (§1) In vitro CDK12/cyclinK assays for all compounds and in vitro kinome-wide inhibition profiling of 30d at 10 μM were performed by a CRO company (Reaction Biology Corp., San Diego, CA, USA).
# [2] = biological target: T2, ARK5 (Homo sapiens, UniProt O60285)
# T2 construct: purchased Reaction Biology Corp
# Procedure: as §1
# [3] = biological target: T3, CAMK2d (Homo sapiens, UniProt Q13557)
# T3 construct: purchased Reaction Biology Corp
# Procedure: as §1
# [4] = biological target: T4, CDC7/DBF4 (Homo sapiens, UniProt O00311)
# T4 construct: purchased Reaction Biology Corp
# Procedure: as §1
# [5] = biological target: T5, CSNK2A1 (Homo sapiens, UniProt P68400)
# T5 construct: purchased Reaction Biology Corp
# Procedure: as §1
# [6] = biological target: T6, CSNK2A2 (Homo sapiens, UniProt P19784)
# T6 construct: purchased Reaction Biology Corp
# Procedure: as §1
# [7] = biological target: T7, DAPK3 (Homo sapiens, UniProt O43293)
# T7 construct: purchased Reaction Biology Corp
# Procedure: as §1
# [8] = biological target: T8, DCAMKL2 (Homo sapiens, UniProt Q8N568)
# T8 construct: purchased Reaction Biology Corp
# Procedure: as §1
# [9] = biological target: T9, DYRK1A (Homo sapiens, UniProt Q13627)
# T9 construct: purchased Reaction Biology Corp
# Procedure: as §1
# [10] = biological target: T10, EPHA6 (Homo sapiens, UniProt Q9UF33)
# T10 construct: purchased Reaction Biology Corp
# Procedure: as §1
# [11] = biological target: T11, FGFR2 (Homo sapiens, UniProt P21802)
# T11 construct: purchased Reaction Biology Corp
# Procedure: as §1
# [12] = biological target: T12, FGFR3 (Homo sapiens, UniProt P22607)
# T12 construct: purchased Reaction Biology Corp
# Procedure: as §1
# [13] = biological target: T13, FGR (Homo sapiens, UniProt P09769)
# T13 construct: purchased Reaction Biology Corp
# Procedure: as §1
# [14] = biological target: T14, FRK (Homo sapiens, UniProt P42685)
# T14 construct: purchased Reaction Biology Corp
# Procedure: as §1
# [15] = biological target: T15, GRK4 (Homo sapiens, UniProt P32298)
# T15 construct: purchased Reaction Biology Corp
# Procedure: as §1
# [16] = biological target: T16, HIPK2 (Homo sapiens, UniProt Q9H2X6)
# T16 construct: purchased Reaction Biology Corp
# Procedure: as §1
# [17] = biological target: T17, HPK1 (Homo sapiens, UniProt Q92918)
# T17 construct: purchased Reaction Biology Corp
# Procedure: as §1
# [18] = biological target: T18, JAK3 (Homo sapiens, UniProt P52333)
# T18 construct: purchased Reaction Biology Corp
# Procedure: as §1
# [19] = biological target: T19, JNK3 (Homo sapiens, UniProt P53779)
# T19 construct: purchased Reaction Biology Corp
# Procedure: as §1
# [20] = biological target: T20, LYN (Homo sapiens, UniProt P07948)
# T20 construct: purchased Reaction Biology Corp
# Procedure: as §1
# [21] = biological target: T21, MAP3K2 (Homo sapiens, UniProt Q9Y2U5)
# T21 construct: purchased Reaction Biology Corp
# Procedure: as §1
# [22] = biological target: T22, MAP4K5 (Homo sapiens, UniProt Q9Y4K4)
# T22 construct: purchased Reaction Biology Corp
# Procedure: as §1
# [23] = biological target: T23, MAST3 (Homo sapiens, UniProt O60307)
# T23 construct: purchased Reaction Biology Corp
# Procedure: as §1
# [24] = biological target: T24, MEK1 (Homo sapiens, UniProt Q02750)
# T24 construct: purchased Reaction Biology Corp
# Procedure: as §1
# [25] = biological target: T25, MEK3 (Homo sapiens, UniProt P46734)
# T25 construct: purchased Reaction Biology Corp
# Procedure: as §1
# [26] = biological target: T26, NEK4 (Homo sapiens, UniProt P51957)
# T26 construct: purchased Reaction Biology Corp
# Procedure: as §1
# [27] = biological target: T27, P38-gamma (Homo sapiens, UniProt P53778)
# T27 construct: purchased Reaction Biology Corp
# Procedure: as §1
# [28] = biological target: T28, PAK6 (Homo sapiens, UniProt Q9NQU5)
# T28 construct: purchased Reaction Biology Corp
# Procedure: as §1
# [29] = biological target: T29, PFTK1 (Homo sapiens, UniProt O94921)
# T29 construct: purchased Reaction Biology Corp
# Procedure: as §1
# [30] = biological target: T30, PIM3 (Homo sapiens, UniProt Q86V86)
# T30 construct: purchased Reaction Biology Corp
# Procedure: as §1
# [31] = biological target: T31, PLK3 (Homo sapiens, UniProt Q9H4B4)
# T31 construct: purchased Reaction Biology Corp
# Procedure: as §1
# [32] = biological target: T32, PRKD3 (Homo sapiens, UniProt O94806)
# T32 construct: purchased Reaction Biology Corp
# Procedure: as §1
# [33] = biological target: T33, RSK4 (Homo sapiens, UniProt Q9UK32)
# T33 construct: purchased Reaction Biology Corp
# Procedure: as §1
# [34] = biological target: T34, SGK1 (Homo sapiens, UniProt O00141)
# T34 construct: purchased Reaction Biology Corp
# Procedure: as §1
# [35] = biological target: T35, SGK3 (Homo sapiens, UniProt Q96BR1)
# T35 construct: purchased Reaction Biology Corp
# Procedure: as §1
# [36] = biological target: T36, SNARK (Homo sapiens, UniProt Q9H093)
# T36 construct: purchased Reaction Biology Corp
# Procedure: as §1
# [37] = biological target: T37, SRPK1 (Homo sapiens, UniProt Q96SB4)
# T37 construct: purchased Reaction Biology Corp
# Procedure: as §1
# [38] = biological target: T38, SRPK2 (Homo sapiens, UniProt P78362)
# T38 construct: purchased Reaction Biology Corp
# Procedure: as §1
# [39] = biological target: T39, STK16 (Homo sapiens, UniProt O75716)
# T39 construct: purchased Reaction Biology Corp
# Procedure: as §1
# [40] = biological target: T40, SYK (Homo sapiens, UniProt P43405)
# T40 construct: purchased Reaction Biology Corp
# Procedure: as §1
# [41] = biological target: T41, TGFBR2 (Homo sapiens, UniProt P37173)
# T41 construct: purchased Reaction Biology Corp
# Procedure: as §1
# [42] = biological target: T42, TSSK2 (Homo sapiens, UniProt Q96PF2)
# T42 construct: purchased Reaction Biology Corp
# Procedure: as §1
# [43] = biological target: T43, TSSK3 (Homo sapiens, UniProt Q96PN8)
# T43 construct: purchased Reaction Biology Corp
# Procedure: as §1
# T10 sequence (Q9UF33 23-1036): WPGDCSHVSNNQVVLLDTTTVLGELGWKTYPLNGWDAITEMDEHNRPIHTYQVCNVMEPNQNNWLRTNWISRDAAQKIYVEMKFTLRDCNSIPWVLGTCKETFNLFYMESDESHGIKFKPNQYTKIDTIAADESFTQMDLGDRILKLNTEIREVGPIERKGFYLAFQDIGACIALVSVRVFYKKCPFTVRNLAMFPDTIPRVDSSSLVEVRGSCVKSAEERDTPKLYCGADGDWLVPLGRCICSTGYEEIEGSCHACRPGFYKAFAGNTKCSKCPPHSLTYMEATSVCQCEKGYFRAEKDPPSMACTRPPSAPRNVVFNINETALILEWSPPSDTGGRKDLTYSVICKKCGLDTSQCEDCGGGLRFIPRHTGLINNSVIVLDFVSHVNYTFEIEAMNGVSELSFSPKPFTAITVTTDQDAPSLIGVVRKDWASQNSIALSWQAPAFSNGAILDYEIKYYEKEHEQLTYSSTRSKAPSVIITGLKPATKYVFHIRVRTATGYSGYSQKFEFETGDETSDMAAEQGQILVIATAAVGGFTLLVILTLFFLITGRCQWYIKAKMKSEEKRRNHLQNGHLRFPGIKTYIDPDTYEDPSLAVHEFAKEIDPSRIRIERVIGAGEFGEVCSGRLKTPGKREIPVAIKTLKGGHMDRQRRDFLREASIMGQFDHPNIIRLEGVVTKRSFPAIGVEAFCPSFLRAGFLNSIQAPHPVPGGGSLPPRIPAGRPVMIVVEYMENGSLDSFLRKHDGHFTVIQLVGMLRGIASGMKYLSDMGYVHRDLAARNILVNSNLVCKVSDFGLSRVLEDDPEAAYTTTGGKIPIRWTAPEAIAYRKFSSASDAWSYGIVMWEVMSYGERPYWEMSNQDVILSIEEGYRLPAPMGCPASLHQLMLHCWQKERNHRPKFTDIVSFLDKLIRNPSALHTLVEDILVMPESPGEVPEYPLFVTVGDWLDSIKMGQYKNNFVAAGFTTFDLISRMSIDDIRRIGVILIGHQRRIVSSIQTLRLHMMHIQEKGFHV
# T6 sequence (P19784 whole entry): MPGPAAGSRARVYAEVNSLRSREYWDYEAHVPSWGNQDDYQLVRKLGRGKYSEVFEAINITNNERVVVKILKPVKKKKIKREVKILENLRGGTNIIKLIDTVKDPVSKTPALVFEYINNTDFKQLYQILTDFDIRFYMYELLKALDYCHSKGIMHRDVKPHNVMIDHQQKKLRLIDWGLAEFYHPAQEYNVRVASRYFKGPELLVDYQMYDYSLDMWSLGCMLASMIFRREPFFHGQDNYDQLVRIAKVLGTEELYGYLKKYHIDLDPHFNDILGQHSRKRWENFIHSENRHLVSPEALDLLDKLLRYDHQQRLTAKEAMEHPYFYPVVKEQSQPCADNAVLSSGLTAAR
# T11 sequence (P21802 22-821): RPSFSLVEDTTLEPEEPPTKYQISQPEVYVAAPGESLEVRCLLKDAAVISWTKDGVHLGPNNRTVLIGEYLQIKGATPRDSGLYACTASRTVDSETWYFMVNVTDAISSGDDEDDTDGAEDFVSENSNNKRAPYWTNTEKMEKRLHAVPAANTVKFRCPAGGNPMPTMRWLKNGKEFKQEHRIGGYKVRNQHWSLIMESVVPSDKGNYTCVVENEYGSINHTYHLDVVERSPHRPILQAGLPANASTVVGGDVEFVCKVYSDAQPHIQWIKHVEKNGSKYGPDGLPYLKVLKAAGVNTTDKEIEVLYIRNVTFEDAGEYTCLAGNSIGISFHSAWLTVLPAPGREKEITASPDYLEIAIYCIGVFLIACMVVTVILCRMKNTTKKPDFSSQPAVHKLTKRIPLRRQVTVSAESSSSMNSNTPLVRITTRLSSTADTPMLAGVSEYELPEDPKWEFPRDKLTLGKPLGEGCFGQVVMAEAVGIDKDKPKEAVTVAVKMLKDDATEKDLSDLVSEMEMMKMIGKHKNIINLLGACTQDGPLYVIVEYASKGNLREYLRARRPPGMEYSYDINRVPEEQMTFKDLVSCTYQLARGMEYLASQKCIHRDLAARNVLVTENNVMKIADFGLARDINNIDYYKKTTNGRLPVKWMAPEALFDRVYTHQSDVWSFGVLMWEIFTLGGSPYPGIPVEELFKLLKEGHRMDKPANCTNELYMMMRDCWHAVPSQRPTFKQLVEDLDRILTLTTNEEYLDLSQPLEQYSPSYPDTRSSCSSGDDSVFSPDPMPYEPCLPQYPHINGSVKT
# T5 sequence (P68400 whole entry): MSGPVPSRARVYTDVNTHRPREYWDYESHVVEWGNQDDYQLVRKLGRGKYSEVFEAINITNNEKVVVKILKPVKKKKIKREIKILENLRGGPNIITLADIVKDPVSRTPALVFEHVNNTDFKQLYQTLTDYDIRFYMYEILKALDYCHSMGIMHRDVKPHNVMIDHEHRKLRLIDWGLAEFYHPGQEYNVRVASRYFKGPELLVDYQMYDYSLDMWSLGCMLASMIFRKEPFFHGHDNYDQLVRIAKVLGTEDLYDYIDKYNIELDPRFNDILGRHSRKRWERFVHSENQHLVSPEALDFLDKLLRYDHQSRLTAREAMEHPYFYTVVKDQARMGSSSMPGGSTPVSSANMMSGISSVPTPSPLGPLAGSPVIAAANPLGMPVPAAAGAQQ
# T29 sequence (O94921 whole entry): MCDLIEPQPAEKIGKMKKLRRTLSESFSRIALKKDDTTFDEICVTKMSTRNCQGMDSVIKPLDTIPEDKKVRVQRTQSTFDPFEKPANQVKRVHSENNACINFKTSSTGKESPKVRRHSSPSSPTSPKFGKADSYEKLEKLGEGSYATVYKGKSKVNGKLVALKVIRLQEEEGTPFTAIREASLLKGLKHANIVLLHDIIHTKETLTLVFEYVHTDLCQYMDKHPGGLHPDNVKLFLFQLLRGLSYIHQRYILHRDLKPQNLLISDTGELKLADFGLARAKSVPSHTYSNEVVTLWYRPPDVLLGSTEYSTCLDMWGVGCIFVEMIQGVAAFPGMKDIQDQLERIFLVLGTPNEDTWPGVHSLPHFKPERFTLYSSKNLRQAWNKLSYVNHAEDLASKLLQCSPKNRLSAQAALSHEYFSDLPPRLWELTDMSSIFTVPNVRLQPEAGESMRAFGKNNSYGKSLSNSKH
# T29 sequence (Q8ND76 whole entry partner): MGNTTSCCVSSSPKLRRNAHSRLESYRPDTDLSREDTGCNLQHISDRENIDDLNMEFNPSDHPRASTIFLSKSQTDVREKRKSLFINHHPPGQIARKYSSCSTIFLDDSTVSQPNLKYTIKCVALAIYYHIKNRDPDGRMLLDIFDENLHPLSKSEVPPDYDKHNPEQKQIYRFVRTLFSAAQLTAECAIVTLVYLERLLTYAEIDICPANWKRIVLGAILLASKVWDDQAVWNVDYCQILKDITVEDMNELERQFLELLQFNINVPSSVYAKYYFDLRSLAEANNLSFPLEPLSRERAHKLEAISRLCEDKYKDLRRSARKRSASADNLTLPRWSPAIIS
# T21 sequence (Q9Y2U5 whole entry): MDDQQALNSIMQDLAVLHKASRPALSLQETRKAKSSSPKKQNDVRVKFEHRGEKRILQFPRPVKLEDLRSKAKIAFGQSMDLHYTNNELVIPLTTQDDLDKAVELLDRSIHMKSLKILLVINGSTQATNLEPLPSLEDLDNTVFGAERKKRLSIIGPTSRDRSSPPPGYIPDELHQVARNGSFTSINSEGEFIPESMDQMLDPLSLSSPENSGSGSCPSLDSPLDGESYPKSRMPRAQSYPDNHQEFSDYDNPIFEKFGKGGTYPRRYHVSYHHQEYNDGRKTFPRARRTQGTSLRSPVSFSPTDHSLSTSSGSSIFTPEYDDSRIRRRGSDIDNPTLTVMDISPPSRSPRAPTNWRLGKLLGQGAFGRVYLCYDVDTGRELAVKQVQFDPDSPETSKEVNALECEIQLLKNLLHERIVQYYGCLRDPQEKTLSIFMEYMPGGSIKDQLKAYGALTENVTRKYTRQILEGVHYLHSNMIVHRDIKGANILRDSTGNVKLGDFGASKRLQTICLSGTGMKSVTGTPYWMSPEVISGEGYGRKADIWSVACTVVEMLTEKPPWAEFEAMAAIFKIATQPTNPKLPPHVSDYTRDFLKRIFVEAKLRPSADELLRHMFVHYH
# T43 sequence (Q96PN8 whole entry): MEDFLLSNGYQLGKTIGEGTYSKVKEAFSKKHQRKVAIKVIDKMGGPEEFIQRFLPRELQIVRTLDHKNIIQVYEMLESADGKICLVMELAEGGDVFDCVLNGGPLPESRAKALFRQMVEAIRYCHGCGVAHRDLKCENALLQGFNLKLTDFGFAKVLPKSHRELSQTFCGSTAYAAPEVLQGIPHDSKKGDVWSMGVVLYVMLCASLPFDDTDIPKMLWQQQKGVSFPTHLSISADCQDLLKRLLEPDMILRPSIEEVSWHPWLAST
# T25 sequence (P46734 whole entry): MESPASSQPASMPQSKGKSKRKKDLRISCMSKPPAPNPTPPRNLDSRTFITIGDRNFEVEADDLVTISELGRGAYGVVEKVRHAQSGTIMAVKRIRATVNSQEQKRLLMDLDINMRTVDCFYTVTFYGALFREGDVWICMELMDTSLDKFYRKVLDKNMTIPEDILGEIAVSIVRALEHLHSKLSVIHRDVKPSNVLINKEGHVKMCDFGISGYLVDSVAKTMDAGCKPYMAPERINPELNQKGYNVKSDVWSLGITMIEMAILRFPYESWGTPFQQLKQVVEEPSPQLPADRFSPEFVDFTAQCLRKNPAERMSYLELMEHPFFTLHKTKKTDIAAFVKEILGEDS
compound,measurement,setting,value
"CCn1cnc2c(NCc3ccc(-c4ccccn4)nc3)nc(-c3ccc(N)nc3)nc21 [Compound 30d, N-([2,2′-Bipyridin]-5-ylmethyl)-2-(6-aminopyridin-3-yl)-9-ethyl-9H-purin-6-amine]",remaining activity at 10 µM,[1],105%
same,remaining activity at 10 µM,[2],20.8%
same,remaining activity at 10 µM,[3],61.7%
same,remaining activity at 10 µM,[4],98.2%
same,remaining activity at 10 µM,[5],84.2%
same,remaining activity at 10 µM,[6],91.3%
same,remaining activity at 10 µM,[7],80.8%
same,remaining activity at 10 µM,[8],55%
same,inhibition at 10 µM,[9],> 95%
same,remaining activity at 10 µM,[9],3.9%
same,inhibition at 10 µM,[10],> 95%
same,remaining activity at 10 µM,[10],3%
same,remaining activity at 10 µM,[11],33.7%
same,remaining activity at 10 µM,[12],30.6%
same,remaining activity at 10 µM,[13],54.6%
same,remaining activity at 10 µM,[14],43.5%
same,remaining activity at 10 µM,[15],88.3%
same,remaining activity at 10 µM,[16],81.3%
same,remaining activity at 10 µM,[17],30.2%
same,remaining activity at 10 µM,[18],99.7%
same,remaining activity at 10 µM,[19],48.7%
same,remaining activity at 10 µM,[20],65.7%
same,remaining activity at 10 µM,[21],90%
same,remaining activity at 10 µM,[22],88.3%
same,remaining activity at 10 µM,[23],39.3%
same,remaining activity at 10 µM,[24],149%
same,remaining activity at 10 µM,[25],73.5%
same,remaining activity at 10 µM,[26],95.8%
same,remaining activity at 10 µM,[27],118%
same,remaining activity at 10 µM,[28],57.2%
same,remaining activity at 10 µM,[29],14%
same,remaining activity at 10 µM,[30],86.7%
same,remaining activity at 10 µM,[31],94.4%
same,remaining activity at 10 µM,[32],54.3%
same,remaining activity at 10 µM,[33],54.2%
same,remaining activity at 10 µM,[34],84.9%
same,remaining activity at 10 µM,[35],92.6%
same,remaining activity at 10 µM,[36],59%
same,remaining activity at 10 µM,[37],54.3%
same,remaining activity at 10 µM,[38],60.7%
same,remaining activity at 10 µM,[39],35.9%
same,remaining activity at 10 µM,[40],48.4%
same,remaining activity at 10 µM,[41],94.5%
same,remaining activity at 10 µM,[42],85.3%
same,remaining activity at 10 µM,[43],91.5%
